Each structure is given as a SMILES string. Where only a bound is given, the exact number is not on record here.

The target in this assay is T1, Endothelial lipase (EL) (Homo sapiens, UniProt Q9Y5X9).
T1 construct: transformed by RAGE technology (Athersys) to overexpress endogenous EL; endogenous in cells; the conditioned medium served as the enzyme source
T1 sequence (Q9Y5X9 21-500): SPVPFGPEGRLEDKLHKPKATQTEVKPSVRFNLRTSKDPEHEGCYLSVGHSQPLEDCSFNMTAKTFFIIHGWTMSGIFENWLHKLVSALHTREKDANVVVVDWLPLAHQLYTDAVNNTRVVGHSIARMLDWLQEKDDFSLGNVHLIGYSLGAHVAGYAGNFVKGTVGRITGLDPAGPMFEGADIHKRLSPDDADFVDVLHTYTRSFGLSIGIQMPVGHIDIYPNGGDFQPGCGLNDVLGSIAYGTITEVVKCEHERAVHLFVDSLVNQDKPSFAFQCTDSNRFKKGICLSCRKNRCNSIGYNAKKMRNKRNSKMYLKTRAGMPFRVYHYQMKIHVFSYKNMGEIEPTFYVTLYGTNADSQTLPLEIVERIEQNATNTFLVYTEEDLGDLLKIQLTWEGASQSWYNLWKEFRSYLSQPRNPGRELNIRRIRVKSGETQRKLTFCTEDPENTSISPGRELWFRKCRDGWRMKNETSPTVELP
Put plainly: Endothelial lipase (EL) enzymatic assay with fluorescent substrate A10070 in DMPG vesicles. In kind it is biochemical. As to conditions: conditioned media from HT-1080 cells overexpressing endogenous EL; 20 min preincubation at 37° C. Here is the method:
Endothelial lipase activity was measured using a fluorescent substrate, A10070, (Invitrogen, CA) doped into an artificial vesicle containing DMPG (Avanti Polar Lipids) as the excipient. Vesicles were prepared by combining 285 μL of 1 mM DMPG in a 1:1 mixture of MeOH and CHCl3 with 15 μL of 1 mM A10070 in a 1:1 mixture of MeOH and CHCl3. The mixture was dried under nitrogen and resuspended in 150 μL of 50 mM HEPES pH 8.0 buffer containing 100 mM NaCl and 0.2 mM EDTA. The sample was allowed to sit at rt for 15 min and then was sonicated 3×4 mins on ice with a Branson Sonicator using duty cycle 1. This preparation provides vesicles with a mole fraction of 0.05 for the FRET substrate.
The enzymatic assay was measured using white, opaque 96-well half area plates. Each well contained 60 μL of assay buffer (50 mM HEPES pH 8.0, 50 mM NaCl and 1 mM CaCl2) and 2 ul of a DMSO solution containing compound of interest. Conditioned media obtained from HT-1080 cells, which were transformed by RAGE technology (Athersys) to overexpress endogenous EL, was added and the reaction was allowed to incubate for 20 min at 37° C. with gentle agitation. The reaction was started by the addition of 20 μL of a 1:4 dilution of vesicles. The final total reaction volume was 100 μL. The reaction rates were measured on a Gemini plate reader with an excitation wavelength of 488 nm and an emission of 530 nm. Readings were taken every 20 seconds for 10 min with agitation between each reading. The slope of the linear portion of the readout was used to calculate the rate of the reaction.

For `N#CC(C(=O)NCC(=O)NC1CC1)c1nc2ccc(-c3ccc(NC(=O)OCc4ccccc4)cc3)cc2s1` (centres unmarked) [Example 15, benzyl N-(4-{2-[cyano ({[(cyclopropyl-carbamoyl)methyl]carbamoyl})methyl]-1,3-benzothiazol-6-yl}phenyl) carbamate], the IC50 (usually the concentration that inhibits the measured activity by half) is 1.4 nM. As for `CN1CCN(C(=O)c2cccc(-c3cc4nc(C(C#N)C(=O)NCC(=O)NC5CC5)sc4cc3F)c2)CC1` (centres unmarked) [Example 29, 2-cyano-N-[(cyclopropyl-carbamoyl)methyl]-2-{6-fluoro-5-[3-(4-methylpiperazine-1-carbonyl)phenyl]-1,3-benzothiazol-2-yl}acetamide], half-maximal inhibition (IC50) was put at 1 nM.

Consider `N#CC(C(=O)NCC(=O)NC1CC1)c1nc2cc(-c3ccc(C(N)=O)cc3)c(F)cc2s1` (centres unmarked) [Example 28, 4-{2-[cyano ({[(cyclopropyl-carbamoyl)methyl]carbamoyl})methyl]-6-fluoro-1,3-benzothiazol-5-yl}benzamide], for which the IC50 is less than 1 nM. Consider `CN1CCN(C(=O)c2ccc(-c3cnc4nc(C(C#N)C(=O)NCC(=O)NC5CC5)sc4c3)cc2)CC1` (centres unmarked) [Example 23, 2-cyano-N-[(cyclopropyl-carbamoyl)methyl]-2-{6-[4-(4-methylpiperazine-1-carbonyl)phenyl]-[1,3]thiazolo[4,5-6]pyridin-2-yl}acetamide], for which the midpoint of inhibition, the IC50, lay at 33 nM. Then `CN1CCN(C(=O)c2ccc(-c3ccc4nc(C(C#N)C(=O)NCC(=O)NC5CCC5)sc4c3)cc2)CC1` (centres unmarked) [Example 19, 2-cyano-N-[(cyclobutyl-carbamoyl)methyl]-2-{6-[4-(4-methyl-piperazine-1-carbonyl)phenyl]-1,3-benzothiazol-2-yl} acetamide], with 3140 nM.
